Publication PMC11360041 (ACS Omega, 2024)

What was measured:
TMV [1] = assay: Inactivation effect of compounds against TMV in vivo; parameters: species or system tobacco mosaic virus; conditions: Tobacco mosaic virus, read-out: relative inhibition rate (%) inactive effect
TMV [2] = assay: Curative effect of compounds against TMV in vivo; conditions: Tobacco mosaic virus, read-out: relative inhibition rate (%) curative effect
TMV [3] = assay: Protective effect of compounds against TMV in vivo; parameters: species or system tobacco mosaic virus; conditions: Tobacco mosaic virus, read-out: relative inhibition rate (%) protective effect
Fusarium graminearum = assay: microbe, parasite or virus in culture; format: cell-based; conditions: read-out: Inhibition rate, Fg
Sclerotinia sclerotiorum = format: cell-based; conditions: read-out: Inhibition rate, Ss
watermelon anthracnose = assay: organism not typed; format: cell-based; conditions: read-out: Inhibition rate, Wa
Physalospora piricola = format: cell-based; conditions: read-out: Inhibition rate, Pp, 50 mg/L, Physalospora piricola
Rhizoctonia solani = format: cell-based; conditions: read-out: Inhibition rate, Rs
[4] = system: Fusarium oxysporium f. sp. cucumeris; format: cell-based; conditions: read-out: Inhibition rate, Fc
Bipolaris maydis = format: cell-based; conditions: read-out: Inhibition rate, Bm
Botrytis cinerea = format: cell-based; conditions: read-out: Inhibition rate, Bc
Alternaria solani = format: cell-based; conditions: read-out: Inhibition rate, As
Phytophthora capsici = format: cell-based; conditions: read-out: Inhibition rate, Pc

SMILES | inhibition at 100 µg/mL (TMV [1]) [%] | inhibition at 500 µg/mL (TMV [1]) [%] | inhibition at 100 µg/mL (TMV [2]) [%] | inhibition at 500 µg/mL (TMV [2]) [%] | inhibition at 100 µg/mL (TMV [3]) [%] | inhibition at 500 µg/mL (TMV [3]) [%] | inhibition at 50 µg/mL (Fusarium graminearum) [%] | inhibition at 50 µg/mL (Sclerotinia sclerotiorum) [%] | inhibition at 50 µg/mL (watermelon anthracnose) [%] | inhibition at 50 µg/mL (Physalospora piricola) [%] | inhibition at 50 µg/mL (Rhizoctonia solani) [%] | inhibition at 50 µg/mL [4] [%] | inhibition at 50 µg/mL (Bipolaris maydis) [%] | inhibition at 50 µg/mL (Botrytis cinerea) [%] | inhibition at 50 µg/mL (Alternaria solani) [%] | inhibition at 50 µg/mL (Phytophthora capsici) [%]
NNC(=O)Cn1ccc(=O)c2ccccc21 [C, (4-Oxo-4H-quinolin-1-yl)-acetic Acid Hydrazide] | 17.2 ± 1.1 | 45.9 ± 3.3 | 8.2 ± 0.5 | 31.5 ± 2 | 11.4 ± 2.9 | 47.8 ± 4.8 | – | – | – | – | – | – | – | – | – | –
N#Cc1c(Cl)c(Cl)c(Cl)c(C#N)c1Cl [chlorothalonil, reference compound] | – | – | – | – | – | – | 73 ± 0.9 | < 50 | 100 | 91 ± 1.3 | < 50 | 100 | 86 ± 1.2 | 100 | 100 | 73 ± 1.3
O=C(Cn1ccc(=O)c2ccccc21)NN=Cc1cccs1 [Compound 21] | 0 | 12.3 ± 1.7 | – | – | – | – | 9.5 ± 1.4 | 17.1 ± 1.7 | 14 ± 0.7 | 76.5 ± 2.7 | 35.7 ± 1.5 | 12.2 ± 1.6 | 17.8 ± 1.2 | 31.3 ± 2.1 | 38.5 ± 1.3 | 26.2 ± 2.3
O=C(Cn1ccc(=O)c2ccccc21)NN=Cc1ccc(Cl)cc1 [Compound 13] | 0 | 18.6 ± 0.7 | – | – | – | – | 2.4 ± 0.9 | 7.3 ± 0.5 | 27.9 ± 2.3 | 17.6 ± 1.5 | 12.5 ± 1.4 | 24.5 ± 1.3 | 8.9 ± 0.7 | 14.6 ± 1.3 | 30.8 ± 1.3 | 14.3 ± 1.3
O=C(Cn1ccc(=O)c2ccccc21)NN=Cc1coc2ccccc12 [Compound 24] | 0 | 33.5 ± 0.6 | – | – | – | – | 19 ± 1.2 | 12.2 ± 0.5 | 9.3 ± 0.7 | 17.6 ± 1.2 | 17.9 ± 1.5 | 22.4 ± 1.2 | 11.1 ± 1.8 | 20.8 ± 1.5 | 23.1 ± 1.3 | 19 ± 0.9
O=C(Cn1ccc(=O)c2ccccc21)NN=Cc1ccc([N+](=O)[O-])cc1 [Compound 15] | 0 | 16.1 ± 4.8 | – | – | – | – | 7.1 ± 1.3 | 12.2 ± 1.4 | 34.9 ± 1.5 | 72.1 ± 2.6 | 17.9 ± 1.3 | 24.5 ± 1.6 | 40 ± 1.3 | 27.1 ± 2.4 | 30.8 ± 1.1 | 14.3 ± 0.6
O=C(Cn1ccc(=O)c2ccccc21)NN=Cc1ccc(F)cc1 [Compound 12] | 0 | 27.4 ± 3.9 | – | – | – | – | 21.4 ± 1.4 | 7.3 ± 1.2 | 16.3 ± 1.6 | – | 32.1 ± 2.1 | 16.3 ± 1.5 | 15.6 ± 1.7 | 25 ± 1.4 | 23.1 ± 1.1 | 14.3 ± 1.6
O=C(Cn1ccc(=O)c2ccccc21)NN=Cc1cscn1 [Compound 22] | 0 | 23.9 ± 1.1 | – | – | – | – | 2.4 ± 0.5 | 7.3 ± 0.9 | 14 ± 1.7 | 32.4 ± 1.3 | 26.8 ± 1.1 | 12.2 ± 1.6 | 8.9 ± 0.8 | 25 ± 2.1 | 7.7 ± 1.2 | 26.2 ± 1.5
O=C(Cn1ccc(=O)c2ccccc21)NN=Cc1ccco1 [Compound 20] | 0 | 29.7 ± 3.6 | – | – | – | – | 14.3 ± 1.4 | 36.6 ± 1.7 | 16.3 ± 1.6 | 39.7 ± 1.3 | 35.7 ± 1.8 | 16.3 ± 2 | 20 ± 1.1 | 20.8 ± 1.3 | 38.5 ± 0.5 | 14.3 ± 1.1
Cc1ccc(C=NNC(=O)Cn2ccc(=O)c3ccccc32)cc1 [Compound 2] | 0 | 26.7 ± 3 | – | – | – | – | 14.3 ± 1.3 | 12.2 ± 1.2 | 14 ± 1.3 | 17.6 ± 1.4 | 17.9 ± 1.7 | 28.6 ± 2.3 | 11.1 ± 2.1 | 25 ± 1.5 | 30.8 ± 1.6 | 26.2 ± 1.8
